This note sets out measurements from publication PMC10340532, “MCAK Inhibitors Induce Aneuploidy in Triple-Negative Breast Cancer Models” (Cancers, 2023).

In the assay the target is T1, MCAK (Homo sapiens, UniProt Q99661).
T1 construct: gene KIF2C
T1 sequence (Q99661 2-725): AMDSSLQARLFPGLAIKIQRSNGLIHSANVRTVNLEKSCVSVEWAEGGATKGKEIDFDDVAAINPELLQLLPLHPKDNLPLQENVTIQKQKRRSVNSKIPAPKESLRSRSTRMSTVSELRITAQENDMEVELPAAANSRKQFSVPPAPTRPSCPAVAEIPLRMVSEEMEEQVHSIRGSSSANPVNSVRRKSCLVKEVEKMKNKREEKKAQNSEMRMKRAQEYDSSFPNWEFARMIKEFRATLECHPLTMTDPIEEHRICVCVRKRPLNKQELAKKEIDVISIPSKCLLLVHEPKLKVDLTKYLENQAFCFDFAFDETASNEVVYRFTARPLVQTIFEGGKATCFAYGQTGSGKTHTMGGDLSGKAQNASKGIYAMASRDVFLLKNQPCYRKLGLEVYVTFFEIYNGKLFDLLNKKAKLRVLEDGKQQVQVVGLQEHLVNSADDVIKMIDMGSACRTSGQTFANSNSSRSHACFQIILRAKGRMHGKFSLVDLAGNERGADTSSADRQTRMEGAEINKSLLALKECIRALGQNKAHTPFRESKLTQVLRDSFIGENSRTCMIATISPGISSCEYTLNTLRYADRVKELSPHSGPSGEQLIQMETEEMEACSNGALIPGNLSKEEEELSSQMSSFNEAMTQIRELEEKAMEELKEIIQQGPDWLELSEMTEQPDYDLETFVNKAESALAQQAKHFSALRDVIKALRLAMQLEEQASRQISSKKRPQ
Put plainly: sedimentation-based microtubule depolymerization assay with purified FMCAK; FRET conformation screen, FCP counter screen. It counts as biochemical.

SMILES strings stand for the structures.

`CC(C)c1noc(C2CCCN2C(=O)c2cc(=O)c3ccccc3o2)n1` (stereo not shown) [H9, 2042 H9]: the “sedimentation-based microtubule depolymerization assay with purified FMCAK; FRET” value turned out to be 5 µM.
